# The NIST ThermoML archive (doi:10.1016/j.jct.2013.02.004)
# ± gives the expanded uncertainty stated by the source.
# Test: activity coefficient (dimensionless); of the first substance listed, at infinite dilution; xn = mol fraction of the nth substance listed
# Conditions: 101 kPa, Liquid, Chromatography, x1 = 0
activity coefficient (308.15 K),activity coefficient (318.15 K),activity coefficient (328.15 K),activity coefficient (338.15 K),activity coefficient (348.15 K),activity coefficient (358.15 K),activity coefficient (368.15 K),SMILES
3.57 ± 0.24,3.64 ± 0.25,3.71 ± 0.25,3.78 ± 0.26,3.83 ± 0.26,3.9 ± 0.27,3.96 ± 0.27,C#CCCCC [1-hexyne] + CCCCCC[n+]1ccc2ccccc2c1.N#C[S-]
–,–,2.1 ± 0.14,2.11 ± 0.14,2.13 ± 0.14,2.15 ± 0.15,2.15 ± 0.15,CCC(=O)CC [pentan-3-one] + CCCCCC[n+]1ccc2ccccc2c1.N#C[S-]
